Data on 55 compounds can be found in US9375004B2 (Bayer Intellectual Property GmbH, priority 2010, dated 2016).

One data set in a line: logP by HPLC on reversed-phase column (EEC Directive 79/831 Annex V.A8). The settings on record: HPLC on a reversed-phase column (C 18), EEC Directive 79/831 Annex V.A8.
`C/C(=N\OC(C)(C)C)c1ccc(-c2cccc(NC(=O)c3c(C(F)F)nn(C)c3Cl)c2)cc1` [compound 248] came in with a logP of 5.51.

The compound `Cn1nc(C(F)F)c(C(=O)Nc2cccc(Oc3ccccc3)c2)c1Cl` [compound 251] returned a logP of 3.56.

`Cn1nc(C(F)F)c(C(=O)Nc2ccc(-c3cc(Cl)cc(Cl)c3)cc2)c1Cl` [compound 267] showed a logP of 4.72.

Compound `Cn1nc(C(F)F)c(C(=O)Nc2ccc(C3CCCCC3)cc2)c1Cl` [compound 263] came in with a logP of 4.44.

In turn, `Cn1nc(C(F)F)c(C(=O)Nc2cccc(Sc3ccccc3)c2)c1Cl` [compound 256] came in with a logP of 3.85.

The same data set, now with this note: HPLC on reversed-phase column (C 18), EEC Directive 79/831 Annex V.A8.
`CO/N=C(\C)c1ccc(-c2ccccc2NC(=O)c2c(C(F)F)nn(C)c2Cl)cc1` [compound 130]: the logP was found to be 4.11.

Consider `Cn1nc(C(F)F)c(C(=O)Nc2cccc(-c3cccc(OC(F)(F)F)c3)c2)c1F` [compound 242], for which the logP is 4.11.

For the compound `Cc1ccccc1-c1ccccc1NC(=O)c1c(C(F)F)nn(C)c1Cl` [compound 76], the lipophilicity (logP) is on record as 4.14.

The compound `Cn1nc(C(F)F)c(C(=O)Nc2ccccc2Sc2ccc(Cl)cc2)c1Cl` [compound 165] gave a logP of 4.63.

Regarding `CC(C)Oc1cc(NC(=O)c2c(C(F)F)nn(C)c2F)c(Cl)cc1Cl` [compound 172], the lipophilicity (logP) came to 4.41.

`Cc1ccccc1Oc1ccccc1NC(=O)c1c(C(F)F)nn(C)c1F` [compound 160] gave a logP of 3.96.

Turning to `CC(C)Oc1cccc(-c2cccc(NC(=O)c3c(C(F)F)nn(C)c3Cl)c2)c1` [compound 222], the logP is 4.21.

In turn, `Cn1nc(C(F)F)c(C(=O)Nc2cc(Cl)ccc2SCC(F)(F)F)c1F` [compound 40] had a lipophilicity (logP) of 3.92.

As to `Cn1nc(C(F)F)c(C(=O)Nc2cccc(-c3cc(Cl)cc(Cl)c3)c2)c1F` [compound 231], the logP stood at 4.39.

Compound `CC(C)O/N=C/c1ccc(-c2ccccc2NC(=O)c2c(C(F)F)nn(C)c2F)cc1` [compound 146] returned a log partition coefficient (logP) of 4.31.

With `CCOc1ccc(NC(=O)c2c(C(F)F)nn(C)c2Cl)cc1OCC` [compound 168], the logP is recorded as 2.70.

`CC(C)c1cccc(-c2ccccc2NC(=O)c2c(C(F)F)nn(C)c2F)c1` [compound 93] returned a lipophilicity (logP) of 4.30.

Regarding `Cn1nc(C(F)F)c(C(=O)Nc2ccccc2-c2cc(Cl)cc(Cl)c2)c1Cl` [compound 128], the lipophilicity (logP) is recorded as 4.31.

With `Cn1nc(C(F)F)c(C(=O)Nc2cccc(-c3cccc(Cl)c3Cl)c2)c1Cl` [compound 228], the logP turned out to be 4.21.

In turn, `CCC(C)Oc1cc(NC(=O)c2c(C(F)F)nn(C)c2F)ccc1C` (stereo not shown) [compound 179] had a log partition coefficient (logP) of 3.85.

Compound `Cn1nc(C(F)F)c(C(=O)Nc2cccc(-c3cccc(OC(F)(F)F)c3)c2)c1Cl` [compound 241] had a logP of 4.31.

On to `CC(C)c1ccccc1NC(=O)c1c(C(F)F)nn(C)c1Cl` [compound 2], for which the logP is given as 3.02.

Compound `Cn1nc(C(F)F)c(C(=O)Nc2ccccc2-c2cc(Cl)cc(Cl)c2)c1F` [compound 127] had a logP of 4.01.

The compound `Cn1nc(C(F)F)c(C(=O)Nc2ccccc2-c2cc(F)cc(F)c2)c1F` [compound 91] displayed a logP of 3.31.

Compound `C#CCOc1ccccc1NC(=O)c1c(C(F)F)nn(C)c1F` [compound 26] gave a logP of 2.71.

Turning to `Cn1nc(C(F)F)c(C(=O)Nc2cc(F)ccc2SCC(F)F)c1F` [compound 34], the logP turned out to be 3.33.

Take `Cn1nc(C(F)F)c(C(=O)Nc2ccccc2-c2ccc(C(F)(F)F)cc2)c1Cl` [compound 120]: the lipophilicity (logP) was 3.94.

`Cn1nc(C(F)F)c(C(=O)Nc2cccc(-c3cc(F)cc(F)c3)c2)c1Cl` [compound 210] registered a logP of 3.83.

Turning to `Cn1nc(C(F)F)c(C(=O)Nc2cccc3c2CCCC3)c1F` [compound 56], the lipophilicity (logP) is 3.08.

As for `CCOCCOc1cc(NC(=O)c2c(C(F)F)nn(C)c2Cl)ccc1C` [compound 184], the logP is reported as 3.13.

For `CO/N=C(\C)c1ccc(-c2cccc(NC(=O)c3c(C(F)F)nn(C)c3Cl)c2)cc1` [compound 234], the logP was 4.11.

`Cn1nc(C(F)F)c(C(=O)Nc2ccccc2-c2cccc(Cl)c2Cl)c1F` [compound 121]: the log partition coefficient (logP) came out at 3.76.

The compound `Cn1nc(C(F)F)c(C(=O)Nc2cccc(-c3ccc(F)c(Cl)c3)c2)c1F` [compound 217] returned a log partition coefficient (logP) of 3.89.

Regarding `Cn1nc(C(F)F)c(C(=O)Nc2cccc3c2OCCO3)c1F` [compound 59], the log partition coefficient (logP) is listed as 2.44.

With `Cn1nc(C(F)F)c(C(=O)Nc2cccc(-c3ccc(C(F)(F)F)cc3)c2)c1F` [compound 225], the logP was 3.99.

For `Cn1nc(C(F)F)c(C(=O)Nc2cccc(-c3ccc(C(F)(F)F)cc3)c2)c1Cl` [compound 226], the lipophilicity (logP) is 4.19.

`CC(C)c1cccc(-c2cccc(NC(=O)c3c(C(F)F)nn(C)c3F)c2)c1` [compound 214] registered a log partition coefficient (logP) of 4.41.

The compound `Cn1nc(C(F)F)c(C(=O)Nc2ccccc2C2CC2)c1F` [compound 45] had a lipophilicity (logP) of 2.96.

In the case of `CC(C)c1ccc(-c2ccccc2NC(=O)c2c(C(F)F)nn(C)c2F)cc1` [compound 96], the logP came out at 4.44.

Compound `CC(C)Oc1ccc(-c2ccccc2NC(=O)c2c(C(F)F)nn(C)c2Cl)cc1` [compound 114] came in with a logP of 4.36.

In the case of `CC(C)CCc1cc(F)ccc1NC(=O)c1c(C(F)F)nn(C)c1F` [Example 10], the logP is 3.67.

Compound `Cn1nc(C(F)F)c(C(=O)Nc2ccccc2OCc2cc(Cl)ccc2Cl)c1F` [compound 162] gave a lipophilicity (logP) of 4.56.

In turn, `Cn1nc(C(F)F)c(C(=O)Nc2cccc(-c3cccc([Si](C)(C)C)c3)c2)c1F` [compound 237] displayed a log partition coefficient (logP) of 4.96.

`CC(C)COc1ccc(-c2ccccc2NC(=O)c2c(C(F)F)nn(C)c2F)cc1` [compound 131] showed a logP of 4.61.

For `C/C(=N\OC(C)(C)C)c1ccc(-c2ccccc2NC(=O)c2c(C(F)F)nn(C)c2F)cc1` [compound 156], the logP is 5.17.

`Cn1nc(C(F)F)c(C(=O)Nc2ccccc2Br)c1Cl` [compound 44]: the logP was 3.13.

The compound `CC(C)O/N=C/c1ccc(-c2ccccc2NC(=O)c2c(C(F)F)nn(C)c2Cl)cc1` [compound 147] had a logP of 4.63.

Take `Cc1cc(C)c(-c2cccc(NC(=O)c3c(C(F)F)nn(C)c3F)c2)c(C)c1` [compound 211]: the logP was found to be 4.34.

`Cn1nc(C(F)F)c(C(=O)Nc2ccccc2-c2ccc(Cl)cc2Cl)c1Cl` [compound 124]: the logP stood at 4.24.

With `CC(C)COc1ccc(-c2cccc(NC(=O)c3c(C(F)F)nn(C)c3F)c2)cc1` [compound 235], the logP was 4.61.

In turn, `CCOCCOc1cc(NC(=O)c2c(C(F)F)nn(C)c2F)ccc1C` [compound 185] displayed a log partition coefficient (logP) of 2.96.

In turn, `Cn1nc(C(F)F)c(C(=O)Nc2ccccc2OCc2ccccc2)c1Cl` [compound 159] returned a logP of 3.99.

`Cn1nc(C(F)F)c(C(=O)Nc2cccc(-c3ccc(Cl)cc3)c2)c1F` [compound 207] gave a logP of 3.83.

The compound `Cn1nc(C(F)F)c(C(=O)Nc2cccc(Cl)c2SCC(F)(F)F)c1F` [compound 39] yielded a logP of 3.73.

The compound `CC(C)c1ccc(-c2cccc(NC(=O)c3c(C(F)F)nn(C)c3Cl)c2)cc1` [compound 216] displayed a logP of 4.68.
